Data published in US20260021085A1, “CYCLOALKYL CARBOXYLIC ACID DERIVATIVES AS INHIBITORS OF GLYCOGEN SYNTHASE 1 (GYS1) AND METHODS OF USE THEREOF” (Maze Therapeutics, Inc., priority 2022, published 2026).

Legend:
human GYS1 = human GYS1 (Homo sapiens (Human), UniProt P13807); assay: GYS1 coupled enzyme assay (PK/LDH); format: biochemical; settings: recombinant hGYS1/GN1 protein; geometric mean of at least 2 assay runs
Source text: (§1) The GYS1 coupled enzyme assay is a kinetic biochemical assay that indirectly quantifies the rate of glycogen synthesis by coupling the conversion of GYS1 substrate UDP-glucose into UDP with downstream enzymatic reactions. UDP is released from UDP-glucose as glucose monomers are linked into the growing glycogen strand by GYS1. The coupled assay then proceeds with pyruvate kinase utilizing UDP and phospho (enol) pyruvate (PEP) to form pyruvate. Lactate dehydrogenase then converts pyruvate and NADH into lactate and NAD+. Oxidation of NADH to NAD+ can be measured continuously with a plate reader by quantifying the decrease in NADH absorbance at 340 nm over time.
Compounds that inhibit the hGYS1 enzyme and, subsequently, the downstream conversion of NADH to NAD+, were tested using assay ready plates (black, clear bottom 384 well plates) in a final DMSO reaction volume of 2.5% DMSO. The Assay Buffer contained 50 mM Tris pH 7.5, 2 mM MgCl2, and 100 mM KCl. Fresh stocks of BSA at a final concentration of 0.02% and TCEP at 1 mM were added before splitting buffer into hGYS1 buffer and substrate buffer. To the hGYS1 buffer, rabbit liver glycogen was added at a final concentration of 0.2% glycogen. Glucose-6-Phosphate was added at 1 mM, recombinant hGYS1/GN1 protein was added at 50 nM to the substrate buffer, phosphoenolpyruvate (PEP) was added at 2 mM, UDP-Glucose was added at 0.8 mM, NADH) was added at 0.6 mM, and Pyruvate Kinase/Lactate Dehydrogenase was added at 20 units/mL. The reaction was initiated by mixing hGYS1 buffer and substrate buffer at a 1:1 ratio. Both buffers were plated using a liquid dispensing device with hGYS1 buffer plated first followed by the substrate buffer. Plates were spun briefly to eliminate air bubbles and are immediately read in continuous mode at an absorbance of 340 nm, for 10 time points in one-minute increments, for a total of 10 minutes. The slope from these 10 time points was normalized to the positive and negative control wells.
(§2) Unless otherwise specified, IC50 values are reported as the geometric mean of at least 2 assay runs on separate days. Each run represents the average of a technical replicate, where each compound was assayed twice in the same plate.

[1] = molecular target: hGYS1 enzyme, glycogen synthesis in HeLa cells (Homo sapiens (Human), UniProt P13807); assay: GYS1 cell based assay (glycogen synthesis in HeLa cells, Glucose-glo); settings: starved HeLa cells, 24 h incubation; geometric mean of at least 2 assay runs; read-out: Cellular IC50
Sequence of hGYS1 enzyme, glycogen synthesis in HeLa cells (P13807 whole entry): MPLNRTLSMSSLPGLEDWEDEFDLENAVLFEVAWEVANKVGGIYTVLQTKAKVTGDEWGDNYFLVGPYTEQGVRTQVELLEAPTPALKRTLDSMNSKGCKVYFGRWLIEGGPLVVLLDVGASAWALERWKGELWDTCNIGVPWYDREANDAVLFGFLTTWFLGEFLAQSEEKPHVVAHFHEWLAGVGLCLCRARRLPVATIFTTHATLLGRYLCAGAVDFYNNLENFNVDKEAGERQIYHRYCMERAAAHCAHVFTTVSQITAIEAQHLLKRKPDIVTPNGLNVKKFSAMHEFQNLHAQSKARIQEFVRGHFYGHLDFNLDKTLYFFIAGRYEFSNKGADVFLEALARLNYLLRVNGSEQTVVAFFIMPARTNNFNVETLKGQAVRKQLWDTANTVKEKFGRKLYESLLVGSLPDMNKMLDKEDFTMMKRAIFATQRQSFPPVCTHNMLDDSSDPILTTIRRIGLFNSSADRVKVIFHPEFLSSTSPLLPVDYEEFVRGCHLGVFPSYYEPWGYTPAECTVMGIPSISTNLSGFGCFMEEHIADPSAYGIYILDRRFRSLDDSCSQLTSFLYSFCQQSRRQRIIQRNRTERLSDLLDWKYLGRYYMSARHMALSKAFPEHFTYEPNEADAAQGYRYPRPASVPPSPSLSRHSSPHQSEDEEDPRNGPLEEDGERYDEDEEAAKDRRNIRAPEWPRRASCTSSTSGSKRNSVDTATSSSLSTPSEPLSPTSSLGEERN
Source text: The GYS1 cell based assay is a bioluminescent assay that quantifies the glucose resulting from glycogen digestion; the quantified glucose is an indirect measure of GYS1 glycogen synthesis. Newly synthesized glycogen is digested using Glucoamylase; the resulting glucose is quantified by using the Glucose-glo assay kit from Promega. Glucose-glo works by coupling glucose oxidation and NADH production with a bioluminescent system that is activated with NADH. Glucose is oxidized by Glucose dehydrogenase and the reaction reduces NAD+ to NADH; NADH activates Reductase which reduces a pro-luciferin Reductase Substrate to luciferin. Luciferin is detected in a luciferase reaction using Ultra-Glo rLuciferase and ATP, and the luminesce produced is proportional to the glucose in the sample. The luminescence is measured as a single point read in a plate reader.
Compounds that inhibit the hGYS1 enzyme and, subsequently, the glycogen synthesis in cells, were tested using assay ready plates (white, clear bottom 384 well plates) in a final DMSO reaction volume of 1% DMSO. Compounds in the assay ready plates were mixed with media with no additives, except for 20 mM glucose prior to cell addition. HeLa cells were starved in media with no additives, except for 1× Glutamax for 24 h. Starved HeLa cells were plated, in a 1:1 ratio to the media in the assay ready plate and incubated for 24 h at 37° C. and 5% CO2. Cells were washed in 1×PBS buffer and lysed in lysis buffer containing 50% 1×PBS and 25% 0.3 N HCl of the final volume in the well or reaction volume; cells were incubated with lysis buffer for 10 minutes and quenched with the remaining 25% of the reaction volume that consisted of 450 mM Tris pH 8.0. Lysates were mixed in a 1:1 ratio with Glucoamylase in 100 mM Sodium Acetate buffer, pH 5.3; the mixture was incubated for 1 h at 37° C. The digested lysate was mixed in a 1:1 ratio with Glucose-glo detection mixture as per vendor recommendations (Luciferase detection buffer, Reductase, Reductase substrate, Glucose dehydrogenase, and NAD) in read-out plates (solid white 384-well plates) and incubated for 1 h at RT. The plates were read using a plate reader with luminescence capabilities. Each compound concentration Relative Luminescence Unit (RLU) was averaged and normalized to the average RLU of the positive and negative controls to obtain a percentage inhibition. The normalized data vs. concentration was plotted; to determine the half-maximal concentration (IC50), the Levenberg-Marquardt algorithm was used to fit a Hill equation to the dose response data.
as §2, with “2 assay runs on separate days. […] Unless otherwise specified, IC50 values are reported as the geometric mean of at least two” for “2”

human GYS2 = human GYS2 (Homo sapiens (Human), UniProt P54840); assay: GYS2 coupled enzyme assay (PK/LDH); format: biochemical; settings: recombinant hGYS2/GN1 protein; geometric mean of at least 2 assay runs
Sequence of human GYS2 (P54840 whole entry): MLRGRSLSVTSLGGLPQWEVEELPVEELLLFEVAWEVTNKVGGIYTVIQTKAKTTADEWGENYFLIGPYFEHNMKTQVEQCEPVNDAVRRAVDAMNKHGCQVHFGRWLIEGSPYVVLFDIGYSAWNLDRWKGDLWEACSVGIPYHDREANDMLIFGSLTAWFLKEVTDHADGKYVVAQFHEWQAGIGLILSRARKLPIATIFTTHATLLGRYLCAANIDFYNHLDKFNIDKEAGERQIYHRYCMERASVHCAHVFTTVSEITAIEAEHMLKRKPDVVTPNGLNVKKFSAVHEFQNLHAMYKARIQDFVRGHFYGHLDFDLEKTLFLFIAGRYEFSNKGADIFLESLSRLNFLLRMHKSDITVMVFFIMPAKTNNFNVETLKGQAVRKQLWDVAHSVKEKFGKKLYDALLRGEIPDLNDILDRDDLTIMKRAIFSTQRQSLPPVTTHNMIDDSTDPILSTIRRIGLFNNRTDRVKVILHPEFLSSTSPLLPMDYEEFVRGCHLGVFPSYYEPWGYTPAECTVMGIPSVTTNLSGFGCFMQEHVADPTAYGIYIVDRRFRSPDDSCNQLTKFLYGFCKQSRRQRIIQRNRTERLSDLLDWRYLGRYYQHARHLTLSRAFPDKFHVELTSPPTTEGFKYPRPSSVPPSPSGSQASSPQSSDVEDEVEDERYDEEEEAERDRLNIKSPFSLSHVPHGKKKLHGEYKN
Sequence of human GYS2 (P46976 whole entry partner): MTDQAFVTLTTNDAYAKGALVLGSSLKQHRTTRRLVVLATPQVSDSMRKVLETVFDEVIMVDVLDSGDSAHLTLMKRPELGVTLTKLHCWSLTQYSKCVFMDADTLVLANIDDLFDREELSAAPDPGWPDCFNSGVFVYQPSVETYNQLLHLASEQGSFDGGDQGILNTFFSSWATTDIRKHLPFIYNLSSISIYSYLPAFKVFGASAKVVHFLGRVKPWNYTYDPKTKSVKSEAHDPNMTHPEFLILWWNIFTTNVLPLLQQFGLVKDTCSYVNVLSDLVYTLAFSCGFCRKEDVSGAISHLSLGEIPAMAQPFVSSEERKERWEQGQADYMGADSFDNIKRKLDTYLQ
Source text: as §1, with “GYS2” for “GYS1”, “GYS2.” for “GYS1.”
Compounds that inhibit the hGYS2 enzyme and, subsequently, the downstream conversion of NADH to NAD+, were tested using assay ready plates (black, clear bottom 384 well plates) in a final DMSO reaction volume of 2.5% DMSO. The Assay Buffer contained 50 mM Tris pH 7.5, 2 mM MgCl2, and 100 mM KCl. Fresh stocks of BSA at a final concentration of 0.02% and TCEP 1 mM were added before splitting buffer into hGYS2 buffer and substrate buffer. To the hGYS2 buffer, rabbit liver glycogen was added at a final concentration of 0.2% glycogen. Glucose-6-Phosphate was added at 2 mM, recombinant hGYS2/GN1 protein was added at 200 nM to the substrate buffer, phosphoenolpyruvate (PEP) was added at 2 mM, UDP-Glucose was added at 2 mM, NADH was added at 0.6 mM, and Pyruvate Kinase/Lactate Dehydrogenase was added at 20 units/mL. The reaction was initiated by mixing hGYS2 buffer and substrate buffer at a 1:1 ratio. Both buffers were plated using a liquid dispensing device with hGYS2 buffer plated first followed by the substrate buffer. Plates were spun briefly to eliminate air bubbles and are immediately read in continuous mode at an absorbance of 340 nm, for 10 time points in one-minute increments, for a total of 10 minutes. The slope from these 10 time points was normalized to the positive and negative control wells.
as §2, with “2 assay runs on separate days. […] Unless otherwise specified, IC50 values are reported as the geometric mean of at least two” for “2”

Sequence of human GYS1 (P13807 whole entry): as the sequence (P13807 whole entry) above
Sequence of human GYS1 (P46976 whole entry partner): as the sequence (P46976 whole entry partner) above

| SMILES | IC50 (human GYS1) | IC50 [1] | IC50 (human GYS2) |
| --- | --- | --- | --- |
| COc1ccccc1[C@H](NC(=O)[C@@H]1CCC[C@@H]1C(=O)O)c1ccc(C(C)C)cc1 [Compound 39, (1S,2R)-2-(((R)-(4-isopropylphenyl)(2-methoxyphenyl)methyl)carbamoyl)cyclopentane-1-carboxylic acid] | 3.4 µM | 41.3 µM | 66.4 µM |
| CC(C)c1ccc(C(NC(=O)C2CCCC2C(=O)O)c2cccs2)cc1 (single isomer, unassigned) [Compound 44, (1R or 1S,2S or 2R)-2-(((R or S)-(4-isopropylphenyl)(thiophen-2-yl)methyl)carbamoyl)cyclopentane-1-carboxylic acid] | 12.9 µM |  | 11.7 µM |
| CC(C)c1ccc(C(NC(=O)C2CCCC2C(=O)O)c2cccs2)cc1 (single isomer, unassigned) [Compound 43, (1R or 1S,2S or 2R)-2-(((S or R)-(4-isopropylphenyl)(thiophen-2-yl)methyl)carbamoyl)cyclopentane-1-carboxylic acid] | 19.8 µM |  | > 250 µM |
| CC(C)c1ccc([C@@H](NC(=O)[C@@H]2CCCC[C@@H]2C(=O)O)c2cccs2)cc1 [Compound 42, (1S,2R)-2-(((R)-(4-isopropylphenyl)(thiophen-2-yl)methyl)carbamoyl)cyclohexane-1-carboxylic acid] | 0.961 µM |  | > 77.6 µM |
| CC(C)c1ccc(C(NC(=O)C2CCCC2C(=O)O)c2cccs2)cc1 (single isomer, unassigned) [Compound 46, (1S or 1R,2R or 2S)-2-(((S or R)-(4-isopropylphenyl)(thiophen-2-yl)methyl)carbamoyl)cyclopentane-1-carboxylic acid] | > 99.9 µM |  | > 250 µM |
| CC(C)c1ccc([C@@H](NC(=O)C2CC(O)CC2C(=O)O)c2ccccc2)cc1 (single isomer, unassigned) [Compound 21, (1S or 1R,2R or 2S,4S or 4R)-4-hydroxy-2-(((S)-(4-isopropylphenyl)(phenyl)methyl)carbamoyl)cyclopentane-1-carboxylic acid] | 1.96 µM | > 100 µM |  |
| CC(C)c1ccc([C@@H](NC(=O)C2CC(NC(=O)OC(C)(C)C)CC2C(=O)O)c2ccccc2)cc1 (single isomer, unassigned) [Compound 11, (1S or 1R,2R or 2S,4R or 4S)-4-((tert-butoxycarbonyl)amino)-2-(((S)-(4-isopropylphenyl)(phenyl)methyl)carbamoyl)cyclopentane-1-carboxylic acid] | 1.94 µM | > 100 µM |  |
| CC(C)c1ccc([C@@H](NC(=O)[C@@H]2CCC[C@@H]2C(=O)O)c2cccc3oc(=O)[nH]c23)cc1 [Compound 10, (1S,2R)-2-(((R)-(4-isopropylphenyl)(2-oxo-2,3-dihydrobenzo[d]oxazol-4-yl)methyl)carbamoyl)cyclopentane-1-carboxylic acid] | 2.93 µM | > 100 µM |  |

These reach a lower IC50 (human GYS1). Values come first.

| IC50 (human GYS1) | IC50 [1] | IC50 (human GYS2) | SMILES |
| --- | --- | --- | --- |
| 0.837 µM |  | > 100 µM | CC(C)c1ccc([C@@H](NC(=O)[C@@H]2CCC[C@@H]2C(=O)O)c2ccccc2)nc1 [Compound 36, (1S,2R)-2-(((S)-(5-isopropylpyridin-2-yl)(phenyl)methyl)carbamoyl)cyclopentane-1-carboxylic acid] |
| 0.795 µM | 21.6 µM | 15.5 µM | Cc1ccccc1[C@H](NC(=O)[C@@H]1CCC[C@@H]1C(=O)O)c1ccc(C2CC2)cc1 [Compound 26, (1S,2R)-2-(((R)-(4-cyclopropylphenyl)(o-tolyl)methyl)carbamoyl)cyclopentane-1-carboxylic acid] |
| 0.637 µM |  | > 87.1 µM | CC(C)c1ccc([C@@H](NC(=O)[C@@H]2CCC[C@@H]2C(=O)O)c2ccccc2)cc1 [Compound 41, (1S,2R)-2-(((S)-(4-isopropylphenyl)(phenyl)methyl)carbamoyl)cyclopentane-1-carboxylic acid] |
| 0.426 µM |  | 67.1 µM | O=C(O)[C@H]1CCC[C@H]1C(=O)N[C@@H](c1ccccc1)c1ccc(C2CCC2)cc1 [Compound 34, (1S,2R)-2-(((S)-(4-cyclobutylphenyl)(phenyl)methyl)carbamoyl)cyclopentane-1-carboxylic acid] |
| 0.39 µM |  | 10.8 µM | Cc1ccccc1[C@H](NC(=O)[C@@H]1CCC[C@@H]1C(=O)O)c1ccc(C(C)C)cc1 [Compound 40, (1S,2R)-2-(((R)-(4-isopropylphenyl)(o-tolyl)methyl)carbamoyl)cyclopentane-1-carboxylic acid] |
| 0.384 µM | 16.6 µM | 28.6 µM | O=C(O)[C@H]1CCC[C@H]1C(=O)N[C@@H](c1ccccc1)c1ccc(C2CCC2)c(F)c1 [Compound 18, (1S,2R)-2-(((S)-(4-cyclobutyl-3-fluorophenyl)(phenyl)methyl)carbamoyl)cyclopentane-1-carboxylic acid] |
| 0.364 µM | 6.6 µM | 98 µM | CC(C)c1ccc([C@@H](NC(=O)[C@@H]2CCC[C@@H]2C(=O)O)c2cccs2)cc1 [Compound 45, (1S,2R)-2-(((R)-(4-isopropylphenyl)(thiophen-2-yl)methyl)carbamoyl)cyclopentane-1-carboxylic acid] |
| 0.236 µM | 3.69 µM | 72.8 µM | CC(C)c1ccc([C@@H](NC(=O)[C@@H]2CCC[C@@H]2C(=O)O)c2ccccc2)cc1F [Compound 37, (1S,2R)-2-(((S)-(3-fluoro-4-isopropylphenyl)(phenyl)methyl)carbamoyl)cyclopentane-1-carboxylic acid] |
